According to patent publication US4762701A, “In vivo cellular tracking” (SmithKline Beckman Corporation, priority 1986, dated 1988):
Peptide text beside a SMILES is read from it.

Assays:
Yac cells = assay: Doubling time of Yac cells after thirty minutes exposure to osmolarity regulating agents; type: cell-based, mouse; conditions: for Doubling Time: after thirty minutes exposure, PBS is the comparator; for effects on cell doubling time: compared to phosphate buffered saline
Procedure: The effect on cell viability of exposure to a variety of osmolarity regulating agents was determined by measuring the doubling time of Yac cells after the cells were exposed for thirty minutes to a variety of osmolarity regulating agents. Yac cells are a mouse lymphoma tissue culture cell line available from the American Type Culture Collection, Rockville, Maryland, and are described in the European Journal of Immunology 5:112-117 (1975).

V79 cells = assay: Growth kinetics of stained V79 cells; type: cell-based; conditions: 10^-5 or 4×10^-5 M dye, versus unstained cells
Procedure: Cells cyanine dye labelled using the presently invented procedure were analyzed to determine the effect of labelling on cell viability. V79 cells which are available from the American Type Culture Collection, Rockville, Maryland, and are described in Prescott, D. M., Ann. New York Acad. Sci., 397:101-109 (1982), were labelled with a solution containing DiOC14 (3) at a concentration of 10^-5 or 4×10^-5 M and the growth kinetics of the stained cells were compared to unstained cells and an equal mixture of stained and unstained cells. […] Thus, labelling had no effect on cell growth.

[1] = Cyanine dye solubility in osmolarity regulating agents (relative fluorescence intensity, ethanol standard); type: physicochemical
Procedure: (§1) Included within compounds referred to herein as cyanine dyes are compounds of the above structure having one or more substitutions provided such substituted compounds are soluble in cell labelling media for at least as long as needed for labelling and have a sufficiently high membrane partition coefficient to remain associated with labelled cell membranes. […] Solubility in cell labelling media is determined as shown below by dispursing a cyanine dye in the labelling media and, by standard spectrafluorometric techniques, measuring fluorescence intensity over time. Decreasing fluorescence intensity indicates dye precipitation and adherence to vessel walls. Whether the dyes remain associated with cell membranes is determined, for example, using known flow cytometric procedures to monitor fluorescence intensity of red blood cells injected into the donor animal after labelling. Essentially constant fluorescence intensity of the labelled cells after injection establishes stability of the dye in cell membranes.
All measurements of concentration were made after removal of precipitates by centrifugation and dissolving small aliquots of osmolarity regulating agents containing cyanine dyes into ethanol for spectrofluorometric analysis. The dyes used were DiSC14 (5) and DiOC14 (3), and the osmolarity regulating agents were at iso-osmotic concentrations. Reductions in fluorescence intensity from the ethanol solution standard directly correlate with reductions in cyanine dye solubility.

[2] = Solubility of DiSC14 (5) in iso-osmotic glucose diluted with water or sodium chloride solution; type: physicochemical
Procedure: Further, the solubility of cyanine dyes in a medium containing classical salts and osmolarity regulators in which the dyes are soluble was evaluated. […] Thus, reproducible cell labelling with cyanine dyes can be performed in media containing no more than small amounts of classical salts, such as sodium chloride, potassium chloride, calcium chloride, sodium acetate, potassium acetate, sodium sulfate, sodium iodide, choline chloride, or choline iodide, and preferably is performed in a medium in which no classical salts are used to regulate osmolarity.

rabbit red cells = assay: In vivo stability of labelled rabbit red cells after reinfusion
Text: To test in vivo stability of cells cyanine dye labelled according to the presently invented method, rabbit red cells were withdrawn, labelled with DiSC14 (5), and reinfused. Periodically thereafter, blood samples were obtained and analyzed for percent labelled cells and fluorescence intensity of the labelled cells.
In the fifth animal, not more than 20% of the cyanine dye had migrated from the labelled cells after 60 days in the rabbits' circulation.

[3] = Stability of DiSC14 (5) solutions in osmolarity regulating agents; type: physicochemical
Procedure: as §1
Additionally, stability of DiSC14 (5) solutions in sugars such as glucose, fructose, ribose, sorbose, sucrose, and xylose, sugar-alcohols such as glycerol, inositol, xylitol, and adonitol, and amino acids such as glycine and arginine was determined.

[4] = in Phosphate Buffered Saline, ethanol = 100
[5] = in iso-osmotic Arginine, ethanol = 100
[6] = in iso-osmotic Choline Chloride, ethanol = 100, ** (DiSC14 (5) value) Artifact due to large crystals that did not pellet
[7] = in iso-osmotic Choline Iodide, ethanol = 100
[8] = in iso-osmotic Fructose, ethanol = 100
[9] = in iso-osmotic Glucose, ethanol = 100
[10] = in iso-osmotic Glycerol, ethanol = 100
[11] = in iso-osmotic Glycine, ethanol = 100
[12] = in iso-osmotic Inositol, ethanol = 100
[13] = in iso-osmotic Lyxose, ethanol = 100
[14] = in iso-osmotic Na2 SO4, ethanol = 100
[15] = in iso-osmotic NaCl, ethanol = 100
[16] = in iso-osmotic NaI, ethanol = 100
[17] = in iso-osmotic Ribose, ethanol = 100
[18] = in iso-osmotic Sorbose, ethanol = 100
[19] = in iso-osmotic Sucrose, ethanol = 100
[20] = in iso-osmotic Xylitol, ethanol = 100
[21] = in iso-osmotic Xylose, ethanol = 100
[22] = rabbit, reinfused labelled red cells

## O=S(=O)(O)CC(O)CNC(CO)(CO)CO (centres unmarked) [TAPSO, 3-[N--tris(hydroxymethyl)methylamino]-2-hydroxypropanesulfonic acid]
Yac cells
  Doubling Time: 63.6 h

## O=S(=O)(O)CC(O)CN1CCOCC1 (centres unmarked) [MOPSO, 3-(N--morpholino)-2-hydroxypropane-sulfonic acid]
Yac cells
  Doubling Time: 178.4 h

## CCCCCCCCCCCCCCN1C(=CC=Cc2oc3ccccc3[n+]2CCCCCCCCCCCCCC)Oc2ccccc21 [DiOC14 (3)]
V79 cells
  Cell doubling time of labelled cells: Cell doubling time was unaffected by cyanine dye labelling
[1]; in Ethanol (standard)
  Relative Fluorescence Intensity (CONC): 100
[1]; [4]
  Relative Fluorescence Intensity (CONC): 6.5
[1]; [5]
  Relative Fluorescence Intensity (CONC): 17.2
[1]; [6]
  Relative Fluorescence Intensity (CONC): 6.3
[1]; [7]
  Relative Fluorescence Intensity (CONC): 2.3
[1]; [8]
  Relative Fluorescence Intensity (CONC): 100
[1]; [9]
  Relative Fluorescence Intensity (CONC): 100
[1]; [10]
  Relative Fluorescence Intensity (CONC): 99.5
[1]; [11]
  Relative Fluorescence Intensity (CONC): 93
[1]; [12]
  Relative Fluorescence Intensity (CONC): 92
[1]; [13]
  Relative Fluorescence Intensity (CONC): 1.8
[1]; [14]
  Relative Fluorescence Intensity (CONC): 1.6
[1]; [15]
  Relative Fluorescence Intensity (CONC): 1.7
[1]; [16]
  Relative Fluorescence Intensity (CONC): 0.14
[1]; [17]
  Relative Fluorescence Intensity (CONC): 100
[1]; [18]
  Relative Fluorescence Intensity (CONC): 100
[1]; [19]
  Relative Fluorescence Intensity (CONC): 100
[1]; [20]
  Relative Fluorescence Intensity (CONC): 76.4
[1]; [21]
  Relative Fluorescence Intensity (CONC): 19-52

## O=C(O)CN(CCO)CCO [BICINE, N,N--bis(2-hydroxyethyl)glycine]
Yac cells
  Doubling Time: 57.7 h

## OC[C@H]1O[C@@](CO)(O[C@H]2O[C@H](CO)[C@@H](O)[C@H](O)[C@H]2O)[C@@H](O)[C@@H]1O [Sucrose]
Yac cells
  Doubling Time: 41.0 h
  effects on cell doubling time: negligible effects on cell doubling time

## O=S(=O)(O)CC(O)CN1CCN(CCO)CC1 (centres unmarked) [HEPPSO, N--2-hydroxyethylpiperazine-N'--2-hydroxypropane-sulfonic acid]
Yac cells
  Doubling Time: 23.4 h
  effects on cell doubling time: negligible effects on cell doubling time

## O=S(=O)(O)CC(O)CN(CCO)CCO (centres unmarked) [DIPSO, 3-[N--N--bis(2-hydroxyethyl)amino]-2-hydroxypropane-sulfonic acid]
Yac cells
  Doubling Time: 36.7 h
  effects on cell doubling time: negligible effects on cell doubling time

## NC(=O)CNCCS(=O)(=O)O [ACES, 2-[(2-Amino-2-oxoethyl)amino]ethane sulfonic acid]
Yac cells
  Doubling Time: 1038.4 h

## O=S(=O)(O)CCCNC1CCCCC1 [CAPS, 3-(Cyclohexylamino)-1-propanesulfonic acid]
Yac cells
  Doubling Time: 45.8 h
  effects on cell doubling time: negligible effects on cell doubling time

## O=S(=O)(O)CCNC1CCCCC1 [CHES, 2-(N--cyclohexylamino)ethane sulfonic acid]
Yac cells
  Doubling Time: 51.5 h

## CCCCCCCCCCCCCCN1C(=CC=CC=Cc2sc3ccccc3[n+]2CCCCCCCCCCCCCC)Sc2ccccc21 [DiSC14 (5)]
[2]; diluted with distilled water
  solubility in iso-osmotic glucose solution on dilution with distilled water: not significantly affected by dilution with distilled water
[2]; dilution with only approximately 20% iso-osmotic sodium chloride solution
  solubility in iso-osmotic glucose solution on dilution with sodium chloride solution: reduced significantly
Rabbit red cells; 60 days after labelling and reinjection, all but one of five rabbits
  fluorescence intensity of the stained cells: remained essentially unchanged 60 days after labelling and reinjection
Rabbit red cells; fifth rabbit, after 60 days in circulation
  cyanine dye migrated from the labelled cells: not more than 20%
Rabbit red cells; rabbit, labelled red cells
  clearance rate of red blood cells: did not affect the clearance rate of red blood cells
Rabbit red cells; [22]
  lifetime of labelled red cells: 52 days
  number of circulating labelled red cells over time: decreased linearly as a function of time
[1]; in Ethanol (standard)
  Relative Fluorescence Intensity (CONC): 100
[1]; [4]
  Relative Fluorescence Intensity (CONC): 2.1
[1]; in iso-osmotic Adonitol, ethanol = 100
  Relative Fluorescence Intensity (CONC): 34
[1]; [5]
  Relative Fluorescence Intensity (CONC): 17
[1]; in iso-osmotic CAPS, ethanol = 100
  Relative Fluorescence Intensity (CONC): 40
[1]; [6]
  Relative Fluorescence Intensity (CONC): 11
[1]; [7]
  Relative Fluorescence Intensity (CONC): 0.16
[1]; in iso-osmotic DIPSO, ethanol = 100, *** Precipitate in ethanol (data questionable)
  Relative Fluorescence Intensity (CONC): 43
[1]; in iso-osmotic EPPS, ethanol = 100
  Relative Fluorescence Intensity (CONC): 18
[1]; [8]
  Relative Fluorescence Intensity (CONC): 35
[1]; [9]
  Relative Fluorescence Intensity (CONC): 31
[1]; [10]
  Relative Fluorescence Intensity (CONC): 39
[1]; [11]
  Relative Fluorescence Intensity (CONC): 31
[1]; in iso-osmotic HEPPSO, ethanol = 100
  Relative Fluorescence Intensity (CONC): 20
[1]; [12]
  Relative Fluorescence Intensity (CONC): 42
[1]; [13]
  Relative Fluorescence Intensity (CONC): 0.12
[1]; in iso-osmotic Mannitol, ethanol = 100
  Relative Fluorescence Intensity (CONC): 29
[1]; [14]
  Relative Fluorescence Intensity (CONC): 7.4
[1]; [15]
  Relative Fluorescence Intensity (CONC): 6
[1]; [16]
  Relative Fluorescence Intensity (CONC): 1.1
[1]; [17]
  Relative Fluorescence Intensity (CONC): 24
[1]; [18]
  Relative Fluorescence Intensity (CONC): 40
[1]; [19]
  Relative Fluorescence Intensity (CONC): 41
[1]; in iso-osmotic TAPS, ethanol = 100
  Relative Fluorescence Intensity (CONC): 18
[1]; [20]
  Relative Fluorescence Intensity (CONC): 34
[1]; [21]
  Relative Fluorescence Intensity (CONC): 36
[3]; in glucose, fructose, ribose, sorbose, sucrose, xylose, glycerol, inositol, xylitol, adonitol, glycine, arginine
  time for which dye was stable in solution: at least twenty
[3]; in many of the agents, sixty minutes
  amount of cyanine dye in solution at sixty minutes: had not significantly decreased at sixty minutes

## N[C@H]1C(O)O[C@H](CO)[C@@H](O)[C@@H]1O (some centres unmarked) [Glucosamine]
Yac cells
  Doubling Time: 288.4 h

## O=C[C@H](O)[C@@H](O)[C@H](O)[C@H](O)CO [Glucose]
Yac cells
  Doubling Time: 34.5 h
  effects on cell doubling time: negligible effects on cell doubling time

## NCC(=O)NCC(=O)O [Glycylglycine] (H-Gly-Gly-OH)
Yac cells
  Doubling Time: 66.9 h

## NCCCS(=O)(=O)O [3-Amino-1-propanesulfonic acid]
Yac cells
  Doubling Time: 99.6 h

## O=S(=O)(O)CCCNC(CO)(CO)CO [TAPS, Tris(hydroxymethyl)-methylaminopropane sulfonic acid]
Yac cells
  Doubling Time: 32.7 h
  effects on cell doubling time: negligible effects on cell doubling time

## O=S(=O)(O)CCCN1CCN(CCO)CC1 [EPPS, N--(2-Hydroxyethyl)piperazine-N'--3-propanesulfonic acid]
Yac cells
  Doubling Time: 32.2 h
  effects on cell doubling time: negligible effects on cell doubling time
